Values joined by “and” are separate entries in the source; they are usually repeats but may differ in a detail not shown here. Equal values may be shown once. Inconclusive results and toxic doses are left out.
System: BDF1 mice, B16 melanoma ip, median survival T/C
Experiment: NCI In Vivo Anticancer Drug Screen. Data for tumor model B16 Melanoma (intraperitoneal) in B6D2F1 (BDF1) mice
Details: endpoint: median survival time, higher = longer survival
In short: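 The ratio T/C compares compound-treated mice with vehicle-treated controls, using survival or tumor size as the endpoint in a transplantable tumor model.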

[1] = dose: 1.0 mg/kg/injection, schedule: Q01DX009 (ip), vehicle: saline
[2] = dose: 1.0 mg/kg/injection, schedule: Q02DX009 (ip), vehicle: saline
[3] = dose: 2.0 mg/kg/injection, schedule: Q01DX009 (ip), vehicle: saline
[4] = dose: 2.0 mg/kg/injection, schedule: Q02DX009 (ip), vehicle: saline
[5] = dose: 4.0 mg/kg/injection, schedule: Q01DX009 (ip), vehicle: saline
[6] = dose: 4.0 mg/kg/injection, schedule: Q02DX009 (ip), vehicle: saline
[7] = dose: 8.0 mg/kg/injection, schedule: Q02DX009 (ip), vehicle: saline
[8] = dose: 16.0 mg/kg/injection, schedule: Q02DX009 (ip), vehicle: saline
[9] = dose: 25.0 mg/kg/injection, schedule: Q01DX009 (ip), vehicle: saline
[10] = dose: 100.0 mg/kg/injection, schedule: Q01DX009 (ip), vehicle: saline with Tween-80
[11] = dose: 0.25 mg/kg/injection, schedule: Q01DX009 (ip), vehicle: saline
[12] = dose: 0.5 mg/kg/injection, schedule: Q01DX009 (ip), vehicle: saline
[13] = dose: 200.0 mg/kg/injection, schedule: Q01DX009 (ip), vehicle: saline with Tween-80

CC1CN1P1(N2CC2C)=NP(N2CC2C)(N2CC2C)=NP(N2CC2C)(N2CC2C)=N1 (centres undefined)
T/C (dose: 0.78 mg/kg/injection, schedule: Q01DX009 (ip), vehicle: saline): 111 % of control | T/C [1]: 89 % of control and 99 % of control | T/C [2]: 91 % of control and 100 % of control | T/C (dose: 1.56 mg/kg/injection, schedule: Q01DX009 (ip), vehicle: saline): 104 % of control | T/C [3]: 96 % of control and 103 % of control | T/C [4]: 100 % of control and 105 % of control and 107 % of control | T/C (dose: 3.12 mg/kg/injection, schedule: Q01DX009 (ip), vehicle: saline): 105 % of control | T/C [5]: 110 % of control and 116 % of control | T/C [6]: 99 % of control and 103 % of control and 110 % of control | T/C (dose: 6.25 mg/kg/injection, schedule: Q01DX009 (ip), vehicle: saline): 97 % of control and 117 % of control | T/C (dose: 8.0 mg/kg/injection, schedule: Q01DX009 (ip), vehicle: saline): 107 % of control | T/C [7]: 108 % of control and 109 % of control and 112 % of control | T/C (dose: 12.5 mg/kg/injection, schedule: Q01DX009 (ip), vehicle: saline): 116 % of control | T/C (dose: 16.0 mg/kg/injection, schedule: Q01DX009 (ip), vehicle: saline): 117 % of control | T/C [8]: 101 % of control and 112 % of control and 116 % of control | T/C [9]: 114 % of control and 118 % of control | T/C (dose: 32.0 mg/kg/injection, schedule: Q01DX009 (ip), vehicle: saline): 110 % of control | T/C (dose: 32.0 mg/kg/injection, schedule: Q02DX009 (ip), vehicle: saline): 109 % of control | T/C (dose: 64.0 mg/kg/injection, schedule: Q01DX009 (ip), vehicle: saline): 105 % of control | T/C (dose: 64.0 mg/kg/injection, schedule: Q02DX009 (ip), vehicle: saline): 115 % of control

CCCCCn1c(C)cc(/C=C\c2ccc3cc(C)ccc3[n+]2C)c1C
T/C (dose: 0.62 mg/kg/injection, schedule: Q01DX009 (ip), vehicle: Klucel (hydroxypropylcellulose) (HPC)): 93 % of control | T/C (dose: 1.25 mg/kg/injection, schedule: Q01DX009 (ip), vehicle: Klucel (hydroxypropylcellulose) (HPC)): 87 % of control

CC(N)CCC(C)(C)O (centres undefined)
T/C (dose: 25.0 mg/kg/injection, schedule: Q01DX009 (ip), vehicle: saline with Tween-80): 102 % of control | T/C (dose: 50.0 mg/kg/injection, schedule: Q01DX009 (ip), vehicle: saline with Tween-80): 105 % of control | T/C [10]: 107 % of control

COc1ccc(S(=O)(=O)NC(=S)S)cc1
T/C (dose: 12.5 mg/kg/injection, schedule: Q01DX009 (ip), vehicle: water): 103 % of control | T/C (dose: 25.0 mg/kg/injection, schedule: Q01DX009 (ip), vehicle: water): 102 % of control | T/C (dose: 50.0 mg/kg/injection, schedule: Q01DX009 (ip), vehicle: water): 100 % of control | T/C (dose: 100.0 mg/kg/injection, schedule: Q01DX009 (ip), vehicle: water): 103 % of control

O=[N+]([O-])c1cccc2ncccc12
T/C (dose: 50.0 mg/kg/injection, schedule: Q04DX003 (ip), vehicle: Klucel (hydroxypropylcellulose) (HPC)): 100 % of control | T/C (dose: 100.0 mg/kg/injection, schedule: Q04DX003 (ip), vehicle: Klucel (hydroxypropylcellulose) (HPC)): 97 % of control | T/C (dose: 200.0 mg/kg/injection, schedule: Q04DX003 (ip), vehicle: Klucel (hydroxypropylcellulose) (HPC)): 91 % of control

CCCCCCCCCCCCCCCCCCNC(=O)Oc1ccc(Cl)c(C)c1
T/C (dose: 100.0 mg/kg/injection, schedule: Q04DX003 (ip), vehicle: gum acacia): 88 % of control | T/C (dose: 200.0 mg/kg/injection, schedule: Q04DX003 (ip), vehicle: gum acacia): 90 % of control

Cc1ccc(C)c(NC(=O)Nc2ccccc2)c1
T/C (dose: 100.0 mg/kg/injection, schedule: Q01DX009 (ip), vehicle: Klucel (hydroxypropylcellulose) (HPC)): 96 % of control | T/C (dose: 200.0 mg/kg/injection, schedule: Q01DX009 (ip), vehicle: Klucel (hydroxypropylcellulose) (HPC)): 110 % of control | T/C (dose: 400.0 mg/kg/injection, schedule: Q01DX009 (ip), vehicle: Klucel (hydroxypropylcellulose) (HPC)): 96 % of control

C1CN(P2(N3CC3)=NP(N3CC3)(N3CC3)=NP(N3CC3)(N3CC3)=N2)CCO1 (centres undefined)
T/C [11]: 101 % of control | T/C [12]: 117 % of control | T/C [1]: 117 % of control | T/C [2]: 98 % of control and 104 % of control | T/C [3]: 120 % of control | T/C [4]: 98 % of control and 121 % of control | T/C (dose: 3.13 mg/kg/injection, schedule: Q01DX009 (ip), vehicle: saline): 111 % of control and 112 % of control | T/C (dose: 3.13 mg/kg/injection, schedule: Q02DX009 (ip), vehicle: saline): 110 % of control and 115 % of control | T/C [5]: 116 % of control | T/C [6]: 106 % of control and 122 % of control | T/C (dose: 6.25 mg/kg/injection, schedule: Q02DX009 (ip), vehicle: saline): 93 % of control | T/C [7]: 108 % of control | T/C (dose: 12.5 mg/kg/injection, schedule: Q02DX009 (ip), vehicle: saline): 154 % of control and 156 % of control | T/C [8]: 151 % of control and 171 % of control | T/C (dose: 25.0 mg/kg/injection, schedule: Q02DX009 (ip), vehicle: saline): 164 % of control and 186 % of control and 200 % of control

CCCCN(CCCC)CCCC#N
T/C (dose: 200.0 mg/kg/injection, schedule: Q01DX009 (ip), vehicle: saline): 92 % of control

O=C(COc1ccc(Cl)cc1)Nc1cccnc1
T/C (dose: 25.0 mg/kg/injection, schedule: Q01DX009 (ip), vehicle: Klucel (hydroxypropylcellulose) (HPC)): 90 % of control | T/C (dose: 50.0 mg/kg/injection, schedule: Q01DX009 (ip), vehicle: Klucel (hydroxypropylcellulose) (HPC)): 94 % of control

CCN(CC)CCCNc1nccc2c(C)c3[nH]c4ccncc4c3cc12
T/C (dose: 0.37 mg/kg/injection, schedule: Q01DX009 (ip), vehicle: other): 115 % of control | T/C (dose: 0.38 mg/kg/injection, schedule: Q01DX009 (ip), vehicle: other): 160 % of control | T/C (dose: 0.75 mg/kg/injection, schedule: Q01DX009 (ip), vehicle: other): 171 % of control and 177 % of control | T/C (dose: 1.5 mg/kg/injection, schedule: Q01DX009 (ip), vehicle: other): 163 % of control and 218 % of control | T/C (dose: 3.0 mg/kg/injection, schedule: Q01DX009 (ip), vehicle: other): 163 % of control and 233 % of control | T/C (dose: 6.0 mg/kg/injection, schedule: Q01DX009 (ip), vehicle: other): 188 % of control and 213 % of control

CC[CH2][Sn]([CH2]CC)([CH2]CC)[O][Sn]([CH2]CC)([CH2]CC)[CH2]CC
T/C [11]: 95 % of control | T/C [12]: 100 % of control | T/C (dose: 0.5 mg/kg/injection, schedule: Q04DX003 (ip), vehicle: saline): 117 % of control | T/C [1]: 92 % of control | T/C (dose: 1.0 mg/kg/injection, schedule: Q04DX003 (ip), vehicle: saline): 117 % of control

CN1CCc2cc3c(cc2C1)OCO3
T/C [9]: 94 % of control | T/C (dose: 50.0 mg/kg/injection, schedule: Q01DX009 (ip), vehicle: saline): 93 % of control | T/C (dose: 100.0 mg/kg/injection, schedule: Q01DX009 (ip), vehicle: saline): 95 % of control

CC(C)=Cc1ccccc1
T/C [10]: 95 % of control | T/C (dose: 100.0 mg/kg/injection, schedule: Q04DX003 (ip), vehicle: saline with Tween-80): 95 % of control | T/C [13]: 86 % of control | T/C (dose: 200.0 mg/kg/injection, schedule: Q04DX003 (ip), vehicle: saline with Tween-80): 93 % of control

CCOC(=O)C(C(=O)OCC)c1cc(NC(=O)c2ccccc2)ccc1NC(=O)c1ccccc1
T/C [10]: 95 % of control | T/C [13]: 91 % of control | T/C (dose: 400.0 mg/kg/injection, schedule: Q01DX009 (ip), vehicle: saline with Tween-80): 89 % of control

CCCCCCCCCCCCCCCCN(C)S(=O)(=O)c1ccc2sc(SC)[n+](C)c2c1 (tested in a mixture with another compound)
T/C (dose: 12.5 mg/kg/injection, schedule: Q04DX003 (ip), vehicle: saline with Tween-80): 100 % of control | T/C (dose: 25.0 mg/kg/injection, schedule: Q04DX003 (ip), vehicle: saline with Tween-80): 100 % of control

Clc1nnc(Cl)c(Cl)c1Cl
T/C (dose: 0.05 mg/kg/injection, schedule: Q01DX009 (ip), vehicle: saline with Tween-80): 109 % of control | T/C (dose: 0.05 mg/kg/injection, schedule: Q04DX003 (ip), vehicle: saline): 102 % of control | T/C (dose: 0.1 mg/kg/injection, schedule: Q01DX009 (ip), vehicle: saline with Tween-80): 100 % of control | T/C (dose: 0.1 mg/kg/injection, schedule: Q04DX003 (ip), vehicle: saline): 91 % of control | T/C (dose: 0.2 mg/kg/injection, schedule: Q01DX009 (ip), vehicle: saline with Tween-80): 100 % of control | T/C (dose: 0.2 mg/kg/injection, schedule: Q04DX003 (ip), vehicle: saline): 89 % of control

— PubChem BioAssay AID192 (DTP/NCI, 2004)
